Key:
foxtail, green = test: Test C pre-/postemergence herbicide test; format: in vivo, Setaria viridis
Source text: (§1) Seeds of plant species selected from blackgrass (Alopecurus myosuroides), ryegrass, Italian (Italian ryegrass, Lolium multiflorum), wheat (winter wheat, Triticum aestivum), galium (catchweed bedstraw, Galium aparine), corn (Zea mays), crabgrass, large (large crabgrass, Digitaria sanguinalis), foxtail, giant (giant foxtail, Setaria faberii), johnsongrass (Sorghum halepense), lambsquarters (Chenopodium album), morningglory (Ipomoea coccinea), nutsedge, yellow (yellow nutsedge, Cyperus esculentus), pigweed (Amaranthus retroflexus), ragweed (common ragweed, Ambrosia elatior), soybean (Glycine max), barnyardgrass (Echinochloa crus-galli), oilseed rape (Brassica napus), waterhemp (common waterhemp, Amaranthus rudis), kochia (Kochia scoparia), oat, wild (wild oat, Avena fatua), surinam grass (Brachiaria decumbens), foxtail, green (green foxtail, Setaria viridis), goosegrass (Eleusine indica), bromegrass, downy (downy bromegrass, Bromus tectorum), nightshade (eastern black nightshade, Solanum ptycanthum), cocklebur (common cocklebur, Xanthium strumarium), cupgrass, woolly (woolly cupgrass, Eriochloa villosa), bermudagrass (Cynodon dactylon), sunflower, (common oilseed sunflower, Helianthus annuus), Russian thistle (Salsola kali) and velvetleaf (Abutilon theophrasti) were planted into a blend of loam soil and sand and treated preemergence with test chemicals formulated in a non-phytotoxic solvent mixture which included a surfactant. At the same time, plants selected from these crop and weed species and also barley (winter barley, Hordeum vulgare), […]), chickweed (common chickweed, Stellaria media), deadnettle (henbit deadnettle, Lamium amplexicaule), and canarygrass (littleseed canarygrass, Phalaris minor) were planted in pots containing Redi-Earth® planting medium (Scotts Company, 14111 Scottslawn Road, Marysville, Ohio 43041) comprising spaghnum peat moss, vermiculite, wetting agent and starter nutrients and treated with postemergence applications of test chemicals formulated in the same manner. Plants ranged in height from 2 to 18 cm (1- to 4-leaf stage) for postemergence treatments. Treated plants and controls were maintained in a greenhouse for 13 to 15 days, after which time all species were compared to controls and visually evaluated. Plant response ratings, summarized in Table C, are based on a scale of 0 to 100 where 0 is no effect and 100 is complete control. A dash (-) response means no test result.

sunflower = test: Test C pre-/postemergence herbicide test; format: in vivo, Helianthus annuus; details: Preemergence
Source text: as §1

bluegrass = test: Test D pre-/postemergence herbicide test; format: in vivo, Poa annua; details: for Plant response rating: Bluegrass, scale 0 to 100; for Plant response rating, Bluegrass: scale 0 to 100 (0 no effect, 100 complete control)
In short: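 Plants were maintained 7 to 21 days in a controlled environment after treatment and then scored visually against controls (0 no effect, 100 complete control). Seeds in silt loam received preemergence sprays, and 1- to 4-leaf plants received postemergence sprays, both formulated in non-phytotoxic solvent with surfactant.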

arrowleaf sida = test: Test E preemergence herbicide test; format: in vivo, Sida rhombifolia; design: key: 0 = no effect, 100 = complete control
In short: (§2)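 Planted in silt loam; preemergence spray, non-phytotoxic solvent/surfactant formulation; greenhouse 21 d; visual score 0–100 vs controls.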

dayflower, VA = test: Test E preemergence herbicide test; format: in vivo, Commelina virginica; design: key: 0 = no effect, 100 = complete control
In short: as §2

beggarticks = test: Test E preemergence herbicide test; format: in vivo, Bidens pilosa; design: key: 0 = no effect, 100 = complete control
In short: as §2

[1] = Postemergence, 31 g ai/ha, scale 0 (no effect) to 100 (complete control)
[2] = Postemergence, 62 g ai/ha, scale 0 to 100 (0 no effect, 100 complete control)
[3] = Postemergence, 125 g ai/ha, scale 0 to 100 (0 no effect, 100 complete control)
[4] = Preemergence, 62 g ai/ha, scale 0 to 100
[5] = Preemergence, 125 g ai/ha, scale 0 to 100 (0 no effect, 100 complete control)
[6] = Preemergence, 31 g ai/ha, scale 0 to 100 (0 no effect, 100 complete control)
[7] = Preemergence, 250 g ai/ha, scale 0 to 100 (0 no effect, 100 complete control)
[8] = 125 g ai/ha, scale 0 to 100 (0 no effect, 100 complete control)

Row | SMILES | Plant response rating, Foxtail, Green (foxtail, green; [1]) | Plant response rating, Foxtail, Green (foxtail, green; [2]) | Plant response rating, Foxtail, Green (foxtail, green; [3]) | Plant response rating, Foxtail, Green (foxtail, green; [4]) | Plant response rating, Foxtail, Green (foxtail, green; [5]) | Foxtail, Green plant response rating (foxtail, green; [6]) | Plant response rating, Foxtail, Green (foxtail, green; [7]) | Plant response rating, Sunflower (sunflower; 62 g ai/ha, scale 0 to 100) | Plant response rating, Sunflower (sunflower; [8]) | Plant response rating, Bluegrass (bluegrass; Preemergence, 62 g ai/ha) | Plant response rating, Bluegrass (bluegrass; Preemergence, 31 g ai/ha) | Plant response rating (bluegrass; Preemergence, 250 g ai/ha) | also measured
1 | O=C1NCC(c2ccc(Cl)c(F)c2)C1C(=O)Nc1cccc(F)c1F (stereo not drawn) [Compound 52] | 0 | 10 | 30 | 90 | 90 | 80 | 90 | 0 | 0 | 0 | 0 | 20 | Plant response rating, Foxtail, Green (foxtail, green; Postemergence, 250 g ai/ha, scale 0 to 100 (0 no effect, 100 complete control)): 80; Plant response rating (bluegrass; Postemergence, 16 g ai/ha): 0; Plant response rating (bluegrass; Postemergence, 31 g ai/ha): 0; Plant response rating (bluegrass; Postemergence, 62 g ai/ha): 0; Plant response rating (bluegrass; Postemergence, 125 g ai/ha): 0; Plant response rating (bluegrass; Postemergence, 250 g ai/ha): 0; Plant response rating, Bluegrass (bluegrass; Preemergence, 16 g ai/ha): 0; Plant response rating (bluegrass; Preemergence, 125 g ai/ha): 0
2 | O=C1NCC(c2ccc(F)c(Cl)c2)C1C(=O)Nc1ccccc1F (stereo not drawn) [Compound 60] | 20 | 35 | 45 | 90 | 90 | 90 | – | 0 | 0 | – | – | – | –
3 | O=C1NCCC1C(=O)N(c1ccc(F)c(F)c1)c1ccccc1F (stereo not drawn) [Compound 5, N-(3,4-difluorophenyl)-N-(2-fluorophenyl)-2-oxo-3-pyrrolidinecarboxamide] | – | – | – | 90 | 90 | 85 | 95 | 0 | 0 | – | – | – | –
4 | O=C1NC[C@H](c2cccc(C(F)(F)F)c2)[C@H]1C(=O)Nc1ccccc1F [Compound 204, (3R,4S)—N-(2-fluorophenyl)-2-oxo-4-[3-(trifluoromethyl)phenyl]-3-pyrrolidinecarboxamide] | – | – | – | – | – | – | – | – | – | 0 | 0 | 35 | Plant response rating, Bluegrass (bluegrass; Preemergence, 125 g ai/ha): 15; Plant response rating, Arrowleaf Sida (arrowleaf sida; 31 g ai/ha): 0; Plant response rating, Arrowleaf Sida (arrowleaf sida; 62 g ai/ha): 0; Plant response rating, Arrowleaf Sida (arrowleaf sida; 125 g ai/ha): 0; Plant response rating, Arrowleaf Sida (arrowleaf sida; 250 g ai/ha): 0; Plant response rating, Dayflower, VA (dayflower, VA; 31 g ai/ha): 0; Plant response rating, Dayflower, VA (dayflower, VA; 62 g ai/ha): 0; Plant response rating, Dayflower, VA (dayflower, VA; 125 g ai/ha): 20; Plant response rating, Dayflower, VA (dayflower, VA; 250 g ai/ha): 30; Plant response rating, Beggarticks (beggarticks; 31 g ai/ha): 0; Plant response rating, Beggarticks (beggarticks; 62 g ai/ha): 0; Plant response rating, Beggarticks (beggarticks; 125 g ai/ha): 0; Plant response rating, Beggarticks (beggarticks; 250 g ai/ha): 0
5 | O=C1NCC(c2cc(F)c(F)c(F)c2)C1C(=O)Nc1cccc(F)c1F (stereo not drawn) [Compound 48] | 0 | 0 | 65 | 90 | 90 | 80 | – | 0 | 0 | – | – | – | Plant response rating, Foxtail, Green (foxtail, green; Postemergence, 16 g ai/ha, scale 0 to 100 (0 no effect, 100 complete control)): 0; Plant response rating, Foxtail, Green (foxtail, green; Preemergence, 16 g ai/ha, scale 0 to 100): 70; Plant response rating, Sunflower (sunflower; 16 g ai/ha, scale 0 to 100): 0
6 | O=C1NCC(c2cccc(OC(F)(F)F)c2)C1C(=O)Nc1ccccc1F (stereo not drawn) [Compound 69] | – | – | – | 90 | 95 | – | – | 10 | 10 | – | – | – | Foxtail, Green plant response rating (foxtail, green; Preemergence, 31 g ai/ha, scale 0 to 100, 0 is no effect and 100 is complete control): 90; Plant response rating (scale of 0 to 100), Foxtail, Green (foxtail, green; Preemergence, 250 g ai/ha): 95; Sunflower plant response rating (sunflower; 31 g ai/ha, scale 0 to 100, 0 is no effect and 100 is complete control): 10; Plant response rating (scale of 0 to 100), Sunflower (sunflower; 250 g ai/ha): 15

Reference: patent US10294202B2, “Pyrrolidinones as herbicides” (FMC Corporation, priority 2013, dated 2019)
